The target of assay [1] is T1, KRAS WT (Homo sapiens (Human), UniProt P01116). As to the kind of experiment: KRAS WT Biochemical Assay, BODIPY-GDP Exchange TR-FRET (Example 501; 3 nM KRAS WT, 3 nM SOS1, 60-minute incubation). The gist of the method:
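SOS1-mediated exchange assay: 3 nM biotin-KRAS WT with terbium-streptavidin, started with 3 nM SOS1 and 300 nM BODIPY-GDP, HEPES pH 7.5 with MgCl2. TR-FRET (520/490 nm) read after 60 min; normalized to DMSO and full-inhibition control, IC50 from 4-parameter Hill fit.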
Background: Time-resolved FRET reads energy transfer from a long-lived donor to a nearby acceptor.

The subject of assay [2] is PC-9 (KRAS wild type human lung adenocarcinoma cell line). As to the kind of experiment: KRAS 3D-Cell Proliferation Assay, PC-9 (CellTiter-Glo 3D, 7 days). The assay is classed as cell-based. Conditions: PC-9 3D culture, read-out: Prolif PC9 3D ATP IC50. The protocol: Example 503: KRAS 3D-Cell Proliferation Assays. Cellular potencies of compounds are assessed by evaluating inhibition of proliferation in 3D cultures of homozygous mutant KRAS G12D human pancreatic cell lines (AsPC-1 and HPAC) as compared to a KRAS wild type human lung adenocarcinoma cell line (PC-9 and/or H1975). Cells are seeded into 384-well black round-bottom, ultra-low attachment assay plates in 50 uL cell growth medium (RPMI-1640 with 10% fetal bovine serum and 2 mM L-glutamine). After overnight incubation at 37° C. and 5% CO2, compounds solubilized in DMSO are added as dilution series to the wells in a total volume of 150 nL (0.3% DMSO final). The cells are incubated for 7 days at 37° C. and 5% CO2. Cell proliferation is quantitated by addition of 40 uL/well of CellTiter-GloO 3D (Promega), and the well contents are mixed 20× at high speed using liquid handling automation workstation (Bravo with 384-well head) and centrifuged at 1500 rpm for 2 minutes to eliminate bubbles. This reagent in combination with mechanical disruption releases the cellular ATP to promote activity in a luciferase-based enzyme/substrate chemiluminescent detection system. After a 30-minute incubation under ambient conditions with shaking and an additional 10 minutes without shaking, the luminescence is read on a plate reader (e.g. EnVision [PerkinElmer]). The results are normalized to percent inhibition based on the following control samples: DMSO (0% inhibition) and 1 uM staurosporine (100% inhibition). The normalized luminescence results are plotted against compound concentration, and the data are fit to a 4-parameter Hill equation to determine the IC50 values.
For orientation: ATP-based viability assays read luminescence as a measure of living cells.

In a further assay the target is KRAS G12D (Homo sapiens (Human), UniProt P01116, G12D). As to the kind of experiment: KRAS G12D LoEnz Biochemical Assay, BODIPY-GDP Exchange TR-FRET (SOS1-mediated nucleotide exchange). Conditions: read-out: KRas (G12D) GDP HTRF IC50.
For assay [3], the target named is T1, KRAS WT. As to the kind of experiment: KRAS WT Biochemical Assay, BODIPY-GDP Exchange TR-FRET (Example 502; 0.06 nM KRAS WT, 15 nM GDP, 300 nM SOS1, 120-minute incubation). To be noted: read-out: KRas HTRF IC50. The method, boiled down: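 IC50 from a 4-parameter Hill fit of percent inhibition, itself the TR-FRET 520/490 nm ratio scaled between DMSO and a fully inhibiting control. Reaction: 300 nM SOS1 and 300 nM BODIPY-GDP added to preformed 0.06 nM KRAS WT/15 nM GDP/Tb-streptavidin complex; 120 min incubation; pH 7.5 HEPES, MgCl2, DTT.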

Setting [4] is: read-out: KRas(wt) GDP HTRF IC50.

This note sets out measurements from patent US20240025919A1, “AZA-TETRACYCLIC OXAZEPINE COMPOUNDS AND USES THEREOF” (Genentech, Inc., priority 2022, published 2024).

Each structure is given as a SMILES string. pIC50: −log10 of the molar value. Values joined by “and” are separate entries in the source; they are usually repeats but may differ in a detail not shown here. Equal entries are not always repeated. Where two headings read alike, the source gives them in different places.

T1 sequence (P01116-2 other isoform, or with tags, fused parts or gaps): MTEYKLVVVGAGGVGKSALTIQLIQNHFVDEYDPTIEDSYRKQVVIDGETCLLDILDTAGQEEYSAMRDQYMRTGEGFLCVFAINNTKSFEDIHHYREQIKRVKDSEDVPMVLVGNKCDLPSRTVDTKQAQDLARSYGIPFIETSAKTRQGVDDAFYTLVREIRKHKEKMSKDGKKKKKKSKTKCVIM
Sequence of KRAS G12D (P01116-2 other isoform, or with tags, fused parts or gaps G12D): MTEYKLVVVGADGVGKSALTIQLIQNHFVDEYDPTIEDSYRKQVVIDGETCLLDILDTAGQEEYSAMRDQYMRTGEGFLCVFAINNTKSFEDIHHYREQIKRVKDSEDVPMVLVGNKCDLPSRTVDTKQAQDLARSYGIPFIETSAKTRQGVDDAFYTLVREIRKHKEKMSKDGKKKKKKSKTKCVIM

Turning to `C[C@@H]1Oc2nc(-c3cccc4cccc(Cl)c34)c(F)c3nc(OCC45CCN4CC(F)(F)C5)nc(c23)N2C[C@H]3CC[C@H](N3)[C@@H]12` (single isomer, unassigned) [Compound 21], the pIC50 (commonly the negative decadic logarithm of the IC50, by convention in mol/L) at KRAS WT [1] (setting [4]) was 5.41 and 5.85; in assay [2] it was 5.09.
Take `Cc1cc(N)nc(-c2nc3c4c(nc(OC[C@]56CCN5CC(F)(F)C6)nc4c2F)N2C[C@H]4CC[C@H](N4)[C@H]2[C@H](C)O3)c1C(F)(F)F` (single isomer, unassigned) [Compound 45]: the negative logarithm of the IC50 (pIC50) at KRAS WT [1] (setting [4]) is 7.16 and 6.50; in assay [2] (Homo sapiens, PC-9, 168 h) it was 4.70.
Regarding `C#Cc1cccc2cc(O)cc(-c3nc4c5c(nc(OC[C@@]67CCCN6C[C@H](F)C7)nc5c3F)N3C[C@H]5CC[C@H](N5)[C@H]3[C@H](C)O4)c12` [Compound 11, 5-ethynyl-4-((5S,5aS,6S,9R)-1-fluoro-12-(((2R,7aS)-2-fluorotetrahydro-1H-pyrrolizin-7a(5H)-yl)methoxy)-5-methyl-5a,6,7,8,9,10-hexahydro-5H-4-oxa-3,10a,11,13,14-pentaaza-6,9-methanonaphtho[1,8-ab]heptalen-2-yl)naphthalen-2-ol], the pIC50 was 10.22 on KRAS G12D; 9.42 at KRAS WT [1] (setting [4]); 4.70 in assay [2] (Homo sapiens, PC-9, 168 h).
Consider `C#Cc1c(F)ccc2cccc(-c3nc4c5c(nc(OCC67CCN6CC(F)(F)C7)nc5c3F)N3C[C@H]5CC[C@H](N5)[C@H]3[C@H](C)O4)c12` (stereo partly drawn) [Compound 22, (5S,5aS,6S,9R)-12-((3,3-difluoro-1-azabicyclo[3.2.0]heptan-5-yl)methoxy)-2-(8-ethynyl-7-fluoronaphthalen-1-yl)-1-fluoro-5-methyl-5a,6,7,8,9,10-hexahydro-5H-4-oxa-3,10a,11,13,14-pentaaza-6,9-methanonaphtho[1,8-ab]heptane], for which the pIC50 is 8.00 on KRAS WT [1] (read-out: KRas HTRF IC50) and 5.13 in assay [2].
As to `C#Cc1cccc2cncc(-c3nc4c5c(nc(OC[C@@]67CCCN6C[C@H](F)C7)nc5c3F)N3C[C@H]5CC[C@H](N5)[C@H]3[C@H](C)O4)c12` [Compound 39, (5S,5aS,6S,9R)-2-(5-Ethynylisoquinolin-4-yl)-1-fluoro-12-(((2R,7aS)-2-fluorotetrahydro-1H-pyrrolizin-7a(5H)-yl)methoxy)-5-methyl-5a,6,7,8,9,10-hexahydro-5H-4-oxa-3,10a,11,13,14-pentaaza-6,9-methanonaphtho[1,8-ab]heptalene], the pIC50 at KRAS G12D is 8.75; at KRAS WT [1] (setting [4]), 7.12; in assay [2] (Homo sapiens, PC-9, 168 h) it was 4.70.
On the same counts, the results for `C[C@@H]1Oc2nc(-c3nc(N)cc4ccccc34)c(F)c3nc(OC[C@@]45CCCN4C[C@H](F)C5)nc(c23)N2C[C@H]3CC[C@H](N3)[C@@H]12` [Compound 41, 1-((5S,5aS,6S,9R)-1-fluoro-12-(((2R,7aS)-2-fluorotetrahydro-1H-pyrrolizin-7a(5H)-yl)methoxy)-5-methyl-5a,6,7,8,9,10-hexahydro-5H-4-oxa-3,10a,11,13,14-pentaaza-6,9-methanonaphtho[1,8-ab]heptalen-2-yl)isoquinolin-3-amine] are 8.20, 6.53 and 4.70.
For the compound `Cc1cc(N)nc(-c2nc3c4c(nc(OC[C@@]56CCCN5C[C@H](F)C6)nc4c2F)N2C[C@H]4CC[C@H](N4)[C@H]2[C@H](C)O3)c1C(F)(F)F` [Compound 43, 6-((5S,5aS,6S,9R)-1-Fluoro-12-(((2R,7aS)-2-fluorotetrahydro-1H-pyrrolizin-7a(5H)-yl)methoxy)-5-methyl-5a,6,7,8,9,10-hexahydro-5H-4-oxa-3,10a,11,13,14-pentaaza-6,9-methanonaphtho[1,8-ab]heptalen-2-yl)-4-methyl-5-(trifluoromethyl)pyridin-2-amine], the pIC50 on KRAS G12D was 9.22; on KRAS WT [1] (setting [4]) it was 7.78; in assay [2] (Homo sapiens, PC-9, 168 h), 4.70.
Take `Cc1cc(N)nc(-c2nc3c4c(nc(OC[C@@]56CCCN5C[C@H](F)C6)nc4c2F)N2C[C@H]4CC[C@H](N4)[C@H]2CO3)c1C(F)(F)F` [Compound 44, 6-((5aS,6S,9R)-1-fluoro-12-(((2R,7aS)-2-fluorotetrahydro-1H-pyrrolizin-7a(5H)-yl)methoxy)-5a,6,7,8,9,10-hexahydro-5H-4-oxa-3,10a,11,13,14-pentaaza-6,9-methanonaphtho[1,8-ab]heptalen-2-yl)-4-methyl-5-(trifluoromethyl)pyridin-2-amine]: the negative logarithm of the IC50 (pIC50) was 9.17 at KRAS G12D; 7.23 on KRAS WT [1] (setting [4]); 4.70 in assay [2] (Homo sapiens, PC-9, 168 h).
In the case of `C#Cc1cccc2cc(O)cc(-c3nc4c5c(ncnc5c3F)N3C[C@H]5CC[C@H](N5)[C@H]3[C@H](C)O4)c12` [Compound 54, 5-ethynyl-4-((5S,5aS,6S,9R)-1-fluoro-5-methyl-5a,6,7,8,9,10-hexahydro-5H-4-oxa-3,10a,11,13,14-pentaaza-6,9-methanonaphtho[1,8-ab]heptalen-2-yl)naphthalen-2-ol], the negative logarithm of the IC50 (pIC50) is 7.75 on KRAS G12D; 5.70 on KRAS WT [1] (setting [4]); 4.70 in assay [2] (Homo sapiens, PC-9, 168 h).
On to `C#Cc1c(F)ccc2cccc(-c3nc4c5c(ncnc5c3F)N3C[C@H]5CC[C@H](N5)[C@H]3[C@H](C)O4)c12` [Compound 56, (5S,5aS,6S,9R)-2-(8-ethynyl-7-fluoronaphthalen-1-yl)-1-fluoro-5-methyl-5a,6,7,8,9,10-hexahydro-5H-4-oxa-3,10a,11,13,14-pentaaza-6,9-methanonaphtho[1,8-ab]heptalene], for which the pIC50 at KRAS G12D is 6.03; on KRAS WT [1] (setting [4]), 4.33; in assay [2] (Homo sapiens, PC-9, 168 h), 4.70.
Consider `C[C@@H]1Oc2nc(-c3cc(N)c(F)cc3C(F)(F)F)c(F)c3nc(OC[C@]45CCN4CC(F)(F)C5)nc(c23)N2C[C@H]3CC[C@H](N3)[C@@H]12` [Compound 71, 5-((5S,5aS,6S,9R)-12-(((R)-3,3-Difluoro-1-azabicyclo[3.2.0]heptan-5-yl)methoxy)-1-fluoro-5-methyl-5a,6,7,8,9,10-hexahydro-5H-4-oxa-3,10a,11,13,14-pentaaza-6,9-methanonaphtho[1,8-ab]heptalen-2-yl)-2-fluoro-4-(trifluoromethyl)aniline], for which the negative logarithm of the IC50 (pIC50) at KRAS G12D is 8.45; on KRAS WT [3] it was 6.50; in assay [2] (Homo sapiens, PC-9, 168 h), 4.70.
As to `C[C@@H]1Oc2nc(-c3cnccc3C(F)(F)F)c(F)c3nc(OC[C@]45CCN4CC(F)(F)C5)nc(c23)N2C[C@H]3CC[C@H](N3)[C@@H]12` [Compound 78, (5S,5aS,6S,9R)-12-(((R)-3,3-Difluoro-1-azabicyclo[3.2.0]heptan-5-yl)methoxy)-1-fluoro-5-methyl-2-(4-(trifluoromethyl)pyridin-3-yl)-5a,6,7,8,9,10-hexahydro-5H-4-oxa-3,10a,11,13,14-pentaaza-6,9-methanonaphtho[1,8-ab]heptalene], the negative-log IC50 (pIC50) on KRAS G12D was 6.06; on KRAS WT [3] it was 3.70; in assay [2] (Homo sapiens, PC-9, 168 h), 4.70.
The like results for `C#Cc1c(F)ccc2cc(O)cc(-c3nc4c5c(nc(OC[C@@]67CCCN6C[C@H](F)C7)nc5c3F)N3C[C@H]5CC[C@H](N5)[C@H]3CO4)c12` [Compound 81, 5-Ethynyl-6-fluoro-4-((5aS,6S,9R)-1-fluoro-12-(((2R,7aS)-2-fluorotetrahydro-1H-pyrrolizin-7a(5H)-yl)methoxy)-5a,6,7,8,9,10-hexahydro-5H-4-oxa-3,10a,11,13,14-pentaaza-6,9-methanonaphtho[1,8-ab]heptalen-2-yl)naphthalen-2-ol] were, in that order, 10.07, 9.35 and 4.70.
Turning to `C[C@@H]1Oc2nc(-c3nc(N)c(F)cc3C(F)(F)F)c(F)c3nc(OC[C@@]45CCCN4C[C@H](F)C5)nc(c23)N2C[C@H]3CC[C@H](N3)[C@@H]12` [Compound 84, 3-Fluoro-6-((5S,5aS,6S,9R)-1-fluoro-12-(((2R,7aS)-2-fluorotetrahydro-1H-pyrrolizin-7a(5H)-yl)methoxy)-5-methyl-5a,6,7,8,9,10-hexahydro-5H-4-oxa-3,10a,11,13,14-pentaaza-6,9-methanonaphtho[1,8-ab]heptalen-2-yl)-5-(trifluoromethyl)pyridin-2-amine], the pIC50 at KRAS G12D is 7.60; at KRAS WT [3] it was 5.37; in assay [2] (Homo sapiens, PC-9, 168 h), 4.70.
